Activity calls are given as the source filed them.
Columns and labels:
[1] = target: DNA repair and recombination protein RAD54-like (Homo sapiens, UniProt Q92698); assay: RAD54 Holliday junction migration blockers – biochemical, fluorescence, cherry-picked samples, dose series, confirmation (AID 651657); assay type: functional
HEK293 [2] = assay: HEK293T cell viability loss, resazurin readout – resazurin fluorescence, cytotoxicity control for NF-kB activator project, SAR follow-up (AID 493251); assay type: functional, cell-based; conditions: Homo sapiens
Jurkat = assay: SAR Analysis of small molecule inhibitors of […] specific antigen receptor-induced NF-kB activation in a Jurkat cell line using a luminescence assay - Set 3. [Related pubchem assays (depositor defined):AID435022, AID435025, AID465]; assay type: functional, cell-based; conditions: Homo sapiens
HEK293 [3] = assay: SAR Analysis of small molecule inhibitors of B-cell specific antigen receptor-induced NF-kB activation in a HEK-293T cell line using a luminescence assay - Set 2. [Related pubchem assays (depositor defined):AID435022, AID435025, AID489021]; assay type: functional, cell-based; conditions: Homo sapiens
[4] = target: T1, Dual specificity protein phosphatase 3 (Homo sapiens, UniProt P51452); assay: SAR VHR1 Fluorescent Assay for In Vitro dose response studies Set 3. [Related pubchem assays (depositor defined):AID1654, AID1661, AID1878]; assay type: functional
[5] = target: Tyrosine-protein phosphatase non-receptor type 5 (Homo sapiens, UniProt P54829); assay: PTPN5 enzyme inhibition – biochemical, fluorescence intensity, uHTS hits, confirmation (AID 602372); assay type: functional; conditions: read-out: IC50_Mean
[6] = target: Tyrosine-protein phosphatase non-receptor type 11 (Homo sapiens, UniProt Q06124); assay: PTPN11 enzyme inhibitors – biochemical, selectivity assay for STEP inhibitor project, dose response (AID 602367); assay type: functional; conditions: read-out: IC50_Mean
[7] = target: T1, Dual specificity protein phosphatase 3; assay: VHR phosphatase inhibition, dose response, selectivity assay for STEP inhibitor project, biochemical (AID 602374); assay type: functional; conditions: read-out: IC50_Mean
[8] = target: T2, Mitochondrial peptide methionine sulfoxide reductase (Bos taurus, UniProt P54149); assay type: functional;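 also: absorbance read-out, biochemical high-throughput dose-response screen for MsrA inhibitors, confirmatory; recombinant bovine MsrA coupled to E. coli TrxB with NADPH and selenocystamine; potency is for inhibitors of MsrA activity on DMSO substrate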
T2 sequence (P54149 whole entry): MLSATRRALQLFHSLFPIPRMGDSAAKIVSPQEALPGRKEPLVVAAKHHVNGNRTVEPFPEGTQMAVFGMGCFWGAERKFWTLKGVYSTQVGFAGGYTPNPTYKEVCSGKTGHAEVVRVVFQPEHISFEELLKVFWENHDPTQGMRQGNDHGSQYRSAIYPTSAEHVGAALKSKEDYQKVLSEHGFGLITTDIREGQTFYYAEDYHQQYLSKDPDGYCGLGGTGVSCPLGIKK

[9] = target: Homeodomain-interacting protein kinase 2 (Homo sapiens, UniProt Q9H2X6); assay type: functional;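 also: measured within a kinome-wide kinase profiling panel, HIPK2 being one panel member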
[10] = target: Dual specificity protein kinase CLK4 (Homo sapiens, UniProt Q9HAZ1); assay type: functional
[11] = target: Interleukin-1 receptor-associated kinase 4 (Homo sapiens, UniProt Q9NWZ3); assay type: functional
[12] = target: Glycogen synthase kinase-3 beta (Homo sapiens, UniProt P49841); assay type: functional;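 also: value comes from a broad kinome profiling panel, with GSK3B as the panel member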
[13] = target: Serine/threonine-protein kinase pim-1 (Homo sapiens, UniProt P11309); assay type: functional
[14] = target: cAMP-dependent protein kinase catalytic subunit alpha (Homo sapiens, UniProt P17612); assay type: functional
[15] = target: Cell division cycle 7-related protein kinase (Homo sapiens, UniProt O00311); assay type: functional;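 also: value obtained from a kinome-wide kinase panel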
[16] = target: T3, Methionyl-tRNA synthetase, putative (Trypanosoma brucei brucei, UniProt Q38C91); assay type: functional, Trypanosoma brucei brucei strain 927/4 GUTat10.1
[17] = target: T3, Methionyl-tRNA synthetase, putative; assay type: functional, Trypanosoma brucei brucei strain 927/4 GUTat10.1; remark: listed apart in the source
[18] = Counterscreen for inhibitors of Trypanosoma brucei methionyl tRNA synthetase (MetRS): Luminescence-based cell-based high throughput dose response assay to identify compounds that are cytotoxic to Jurkat human T lymphocyte cells.; assay type: functional
[19] = target: Adenosylmethionine-8-amino-7-oxononanoate aminotransferase (Mycobacterium tuberculosis, UniProt P9WQ81); assay: Mycobacterium tuberculosis BioA enzyme inhibitor Measured in Biochemical System Using Plate Reader - 2163-02_Inhibitor_Dose_CherryPick_Activity.; assay type: functional, Mycobacterium tuberculosis UT205
[20] = target: ADP-ribosylation factor GTPase-activating protein 1 (Rattus norvegicus, UniProt Q62848); assay: Fluorescence polarization-based biochemical high throughput dose response screening assay to identify inhibitors of ADP-ribosylation factor GTPase activating protein 1 (ARFGAP1).; assay type: functional
A-375 [21] = assay: proliferation inhibition in MITF-low A375 cells – cell-based, cherry-pick samples, set 2, counter-screen for MITF modulator project, dose response (AID 540335); assay type: functional; conditions: Homo sapiens
A-375 [22] = assay: MITF: Counter assay: A375 proliferation Measured in Cell-Based System Using Plate Reader - 2084-03_Inhibitor_Dose_DryPowder_Activity. [Related pubchem assays (depositor defined):AID488944]; assay type: functional; conditions: Homo sapiens

T3 sequence (Q38C91 whole entry): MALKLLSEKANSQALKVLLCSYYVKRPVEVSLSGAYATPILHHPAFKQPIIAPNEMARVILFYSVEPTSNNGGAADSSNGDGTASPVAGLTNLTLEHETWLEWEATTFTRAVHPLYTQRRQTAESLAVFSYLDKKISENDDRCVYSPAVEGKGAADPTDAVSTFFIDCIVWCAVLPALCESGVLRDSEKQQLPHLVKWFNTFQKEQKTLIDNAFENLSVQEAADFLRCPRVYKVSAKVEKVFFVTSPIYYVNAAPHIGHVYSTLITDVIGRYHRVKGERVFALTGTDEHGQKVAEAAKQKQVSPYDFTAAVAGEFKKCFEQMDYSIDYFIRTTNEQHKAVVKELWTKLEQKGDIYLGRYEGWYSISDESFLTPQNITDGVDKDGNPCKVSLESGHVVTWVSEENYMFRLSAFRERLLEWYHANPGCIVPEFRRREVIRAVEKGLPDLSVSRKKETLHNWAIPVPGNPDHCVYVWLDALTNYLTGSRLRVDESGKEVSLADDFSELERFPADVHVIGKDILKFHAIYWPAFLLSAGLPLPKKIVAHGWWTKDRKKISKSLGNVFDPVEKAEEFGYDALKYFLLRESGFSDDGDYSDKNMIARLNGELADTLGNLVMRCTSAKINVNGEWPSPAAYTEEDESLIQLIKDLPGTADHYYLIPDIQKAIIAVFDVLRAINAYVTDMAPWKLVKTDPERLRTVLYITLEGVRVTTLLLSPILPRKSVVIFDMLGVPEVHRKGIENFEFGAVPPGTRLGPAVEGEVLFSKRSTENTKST
T1 sequence (P51452 whole entry): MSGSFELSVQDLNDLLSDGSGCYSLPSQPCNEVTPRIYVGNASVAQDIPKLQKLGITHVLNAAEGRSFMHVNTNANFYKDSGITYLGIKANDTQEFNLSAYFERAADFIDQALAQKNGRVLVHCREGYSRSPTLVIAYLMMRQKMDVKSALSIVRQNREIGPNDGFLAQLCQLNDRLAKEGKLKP
Tyrosine-protein phosphatase non-receptor type 5, sequence (P54829 whole entry): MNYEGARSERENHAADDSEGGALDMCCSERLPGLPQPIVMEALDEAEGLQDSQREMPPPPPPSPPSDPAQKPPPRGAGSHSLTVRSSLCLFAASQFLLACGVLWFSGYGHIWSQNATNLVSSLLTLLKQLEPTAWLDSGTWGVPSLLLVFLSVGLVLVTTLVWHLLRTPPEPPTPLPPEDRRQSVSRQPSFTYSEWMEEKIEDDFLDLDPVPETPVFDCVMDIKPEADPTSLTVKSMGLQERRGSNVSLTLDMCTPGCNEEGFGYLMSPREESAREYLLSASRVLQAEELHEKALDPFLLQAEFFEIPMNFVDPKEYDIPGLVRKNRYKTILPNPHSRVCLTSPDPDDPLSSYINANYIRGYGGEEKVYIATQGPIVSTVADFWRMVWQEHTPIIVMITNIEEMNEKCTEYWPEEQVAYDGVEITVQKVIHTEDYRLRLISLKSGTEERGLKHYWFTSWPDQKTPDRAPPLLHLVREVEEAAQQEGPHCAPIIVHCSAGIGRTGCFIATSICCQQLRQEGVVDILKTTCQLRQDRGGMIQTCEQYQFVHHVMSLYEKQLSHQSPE
DNA repair and recombination protein RAD54-like, sequence (Q92698 whole entry): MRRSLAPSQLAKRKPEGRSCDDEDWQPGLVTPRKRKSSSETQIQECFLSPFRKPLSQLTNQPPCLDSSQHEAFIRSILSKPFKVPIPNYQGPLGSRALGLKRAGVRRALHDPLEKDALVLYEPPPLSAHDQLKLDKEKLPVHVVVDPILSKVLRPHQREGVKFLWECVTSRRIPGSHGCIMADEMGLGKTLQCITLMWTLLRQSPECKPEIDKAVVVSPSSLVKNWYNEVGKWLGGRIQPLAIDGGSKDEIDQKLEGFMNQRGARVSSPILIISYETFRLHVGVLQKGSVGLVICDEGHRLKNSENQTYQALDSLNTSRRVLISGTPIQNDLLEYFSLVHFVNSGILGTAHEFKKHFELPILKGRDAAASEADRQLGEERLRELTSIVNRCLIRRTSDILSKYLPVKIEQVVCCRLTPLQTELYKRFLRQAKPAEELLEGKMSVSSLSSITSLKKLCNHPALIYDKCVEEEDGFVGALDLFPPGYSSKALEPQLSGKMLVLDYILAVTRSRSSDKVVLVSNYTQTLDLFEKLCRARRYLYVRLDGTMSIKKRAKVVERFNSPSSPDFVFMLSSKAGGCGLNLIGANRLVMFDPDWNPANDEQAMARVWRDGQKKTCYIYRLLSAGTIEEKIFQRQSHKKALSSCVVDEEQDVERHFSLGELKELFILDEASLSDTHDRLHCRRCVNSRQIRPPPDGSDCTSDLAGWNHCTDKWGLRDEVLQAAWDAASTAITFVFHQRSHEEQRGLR
Tyrosine-protein phosphatase non-receptor type 11, sequence (Q06124 whole entry): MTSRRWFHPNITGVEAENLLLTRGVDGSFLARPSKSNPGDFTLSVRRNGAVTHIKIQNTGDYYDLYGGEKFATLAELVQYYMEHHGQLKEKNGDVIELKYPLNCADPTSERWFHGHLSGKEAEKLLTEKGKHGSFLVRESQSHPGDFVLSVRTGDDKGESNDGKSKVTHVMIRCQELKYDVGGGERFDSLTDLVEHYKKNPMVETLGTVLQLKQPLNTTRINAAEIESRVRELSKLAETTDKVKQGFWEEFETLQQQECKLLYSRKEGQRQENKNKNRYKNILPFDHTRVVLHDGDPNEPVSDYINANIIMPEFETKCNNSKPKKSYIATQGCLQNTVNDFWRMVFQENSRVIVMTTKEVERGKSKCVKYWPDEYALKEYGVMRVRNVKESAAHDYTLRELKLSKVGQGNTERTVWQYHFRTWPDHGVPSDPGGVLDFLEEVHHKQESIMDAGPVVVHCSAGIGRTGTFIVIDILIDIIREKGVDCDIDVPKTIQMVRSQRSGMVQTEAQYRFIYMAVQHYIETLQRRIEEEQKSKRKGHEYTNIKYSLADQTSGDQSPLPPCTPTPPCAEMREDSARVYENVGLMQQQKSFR
Serine/threonine-protein kinase pim-1, sequence (P11309 whole entry): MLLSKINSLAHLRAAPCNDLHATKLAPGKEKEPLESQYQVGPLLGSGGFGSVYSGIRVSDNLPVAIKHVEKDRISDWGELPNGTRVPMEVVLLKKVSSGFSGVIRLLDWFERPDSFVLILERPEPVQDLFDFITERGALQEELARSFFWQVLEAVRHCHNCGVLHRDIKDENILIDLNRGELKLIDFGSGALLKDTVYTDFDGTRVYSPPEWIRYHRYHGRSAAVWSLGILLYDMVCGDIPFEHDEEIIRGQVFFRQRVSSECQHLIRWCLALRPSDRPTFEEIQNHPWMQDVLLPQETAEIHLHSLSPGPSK
Interleukin-1 receptor-associated kinase 4, sequence (Q9NWZ3 whole entry): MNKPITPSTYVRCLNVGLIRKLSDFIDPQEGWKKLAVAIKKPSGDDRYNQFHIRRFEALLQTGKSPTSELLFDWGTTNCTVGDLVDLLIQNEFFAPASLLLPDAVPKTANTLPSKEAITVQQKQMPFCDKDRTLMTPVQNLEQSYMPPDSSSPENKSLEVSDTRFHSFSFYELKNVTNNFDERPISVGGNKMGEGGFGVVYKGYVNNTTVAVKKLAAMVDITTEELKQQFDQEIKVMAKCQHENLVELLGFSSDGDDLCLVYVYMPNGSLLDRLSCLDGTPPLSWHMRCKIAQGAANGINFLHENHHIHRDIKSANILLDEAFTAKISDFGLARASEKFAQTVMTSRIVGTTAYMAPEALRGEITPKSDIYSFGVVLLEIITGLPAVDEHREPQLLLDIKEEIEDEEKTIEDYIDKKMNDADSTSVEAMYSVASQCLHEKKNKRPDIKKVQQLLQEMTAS
Adenosylmethionine-8-amino-7-oxononanoate aminotransferase, sequence (P9WQ81 whole entry): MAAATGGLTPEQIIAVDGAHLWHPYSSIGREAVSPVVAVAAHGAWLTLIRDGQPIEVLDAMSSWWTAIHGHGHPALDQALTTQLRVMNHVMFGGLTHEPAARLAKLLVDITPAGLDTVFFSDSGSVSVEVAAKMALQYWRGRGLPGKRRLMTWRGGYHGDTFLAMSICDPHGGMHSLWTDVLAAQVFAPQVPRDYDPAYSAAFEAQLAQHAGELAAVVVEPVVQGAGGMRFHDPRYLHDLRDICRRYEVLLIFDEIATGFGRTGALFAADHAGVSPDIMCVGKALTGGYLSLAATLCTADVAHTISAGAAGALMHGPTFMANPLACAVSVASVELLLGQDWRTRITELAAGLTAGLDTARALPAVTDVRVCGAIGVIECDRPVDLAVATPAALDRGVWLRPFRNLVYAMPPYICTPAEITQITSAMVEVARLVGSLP
Dual specificity protein kinase CLK4, sequence (Q9HAZ1 whole entry): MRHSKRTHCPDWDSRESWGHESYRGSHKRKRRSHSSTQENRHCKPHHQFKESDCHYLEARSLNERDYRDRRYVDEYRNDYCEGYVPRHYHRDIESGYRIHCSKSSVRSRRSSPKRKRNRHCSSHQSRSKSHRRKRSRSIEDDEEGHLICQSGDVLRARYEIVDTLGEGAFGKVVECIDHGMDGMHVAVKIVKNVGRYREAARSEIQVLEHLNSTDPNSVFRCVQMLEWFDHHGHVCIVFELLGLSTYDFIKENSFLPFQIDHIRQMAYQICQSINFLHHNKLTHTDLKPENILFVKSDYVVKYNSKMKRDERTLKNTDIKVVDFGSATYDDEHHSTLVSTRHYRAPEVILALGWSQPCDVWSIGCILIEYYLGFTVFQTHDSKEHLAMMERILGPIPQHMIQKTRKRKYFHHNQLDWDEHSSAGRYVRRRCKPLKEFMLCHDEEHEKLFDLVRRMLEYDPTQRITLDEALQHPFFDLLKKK
ADP-ribosylation factor GTPase-activating protein 1, sequence (Q62848 whole entry): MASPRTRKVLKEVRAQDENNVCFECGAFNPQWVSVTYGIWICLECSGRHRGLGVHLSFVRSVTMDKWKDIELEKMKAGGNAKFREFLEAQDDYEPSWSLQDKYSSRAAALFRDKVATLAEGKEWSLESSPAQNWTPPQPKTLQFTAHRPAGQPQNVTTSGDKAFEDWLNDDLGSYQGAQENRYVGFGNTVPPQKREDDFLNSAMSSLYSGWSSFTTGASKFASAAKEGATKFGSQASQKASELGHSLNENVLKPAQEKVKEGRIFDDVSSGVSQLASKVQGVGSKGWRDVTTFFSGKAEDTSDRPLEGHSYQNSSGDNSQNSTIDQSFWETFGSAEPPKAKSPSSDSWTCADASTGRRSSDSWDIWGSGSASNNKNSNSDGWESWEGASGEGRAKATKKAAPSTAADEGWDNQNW

In the case of `O=C(COc1ccc2c(c1)oc(=O)c1ccccc12)NCCCN1CCOCC1`, the AC50 [1] is reported as 29.9 µM (active).

With `CCOc1ccc(-c2nc(CSCC(=O)N3CCC(C)CC3)c(C)o2)cc1` the IC50 (HEK293 [2]) was 30 µM (inactive), the IC50 (Jurkat) was 32.6 µM (inactive) and the IC50 (HEK293 [3]) was 9.87 µM (active).

For `CC(C)(C)c1ccc(-c2noc(CCC(=O)N3CCCCC3)n2)cc1`, the IC50 (HEK293 [2]) was 39.7 µM (inactive), the IC50 (Jurkat) was 11.6 µM (active) and the IC50 (HEK293 [3]) was 17.4 µM (active).

In the case of `COc1ccc(C(=O)NNc2nc3c(OC)cccc3s2)cc1`, the IC50 [4] is reported as > 66 µM (inactive).

In the case of `O=C(N/N=C/c1cccc(Br)c1)c1ccc(N2CCCC2=O)cc1`, the IC50 [5] is reported as 11.7 µM (active), the IC50 [6] is reported as 7.26 µM (active) and the IC50 [7] is reported as 7.56 µM (active).

With `C/C(=N\Nc1ccc(S(N)(=O)=O)cc1[N+](=O)[O-])c1ccc2c(c1)OCO2` the IC50 [8] was 155 µM (inactive).

For `O=[N+]([O-])c1cccc(-c2nnc3ccc(N4CCCCC4)nn23)c1`, the Ki [9] was 0.0126 µM (active), the Ki [10] was 0.01 µM (active) and the Ki [11] was 10 µM (active). For the same compound, the Ki [12] was 0.0398 µM (active), the Ki [13] was 0.0316 µM (active) and the Ki [14] was > 7.94 µM (inactive). The Ki [15] was 0.00631 µM (active).

For `Cc1c(NS(=O)(=O)c2cccc(C(=O)NCc3cccc(Cl)c3)c2)c(=O)n(-c2ccccc2)n1C`, the IC50 [16] was 21.7 µM (inactive), the IC50 [17] was 119 µM (inactive) and the IC50 [18] was 83.3 µM (inactive).

In the case of `COc1cccc(NC(=O)N2C[C@H](O)COC[C@@H]3O[C@@H](CC(=O)N(C)C)CC[C@H]32)c1`, the AC50 [19] is reported as 0.596 µM (active).

For `CC1CC(C)CN(C(=O)COC(=O)c2cn(C)c3ccccc23)C1` (stereo unspecified), the IC50 [20] was 28.4 µM (inactive).

With `CN(C)c1ccc(/C=N/N2CCN(c3ccccn3)CC2)cc1` the AC50 (A-375 [21]) was > 35 µM (active) and the AC50 (A-375 [22]) was > 35 µM (active).

Reference: ChEMBL document CHEMBL1201862, “PubChem BioAssay data set” (2004)
